Test results taken from US8618289B2 (Ambit Biosciences Corporation, priority 2008, dated 2013).
Read-outs that look alike come from different tables or passages of the source.

Assays:
[1] = test system: MEK1 phosphorylation in the A375 human melanoma cell line; experiment: cells; settings: A-375, read-out: pMEK IC50
A375 cells = experiment: cells; settings: Homo sapiens, A-375, read-out: A375 Viability EC50
RAF kinases [2] = target: RAF kinases (Homo sapiens, UniProt P04049); experiment: biochemical
RAF kinases (Homo sapiens, UniProt P04049), sequence (P04049 whole entry): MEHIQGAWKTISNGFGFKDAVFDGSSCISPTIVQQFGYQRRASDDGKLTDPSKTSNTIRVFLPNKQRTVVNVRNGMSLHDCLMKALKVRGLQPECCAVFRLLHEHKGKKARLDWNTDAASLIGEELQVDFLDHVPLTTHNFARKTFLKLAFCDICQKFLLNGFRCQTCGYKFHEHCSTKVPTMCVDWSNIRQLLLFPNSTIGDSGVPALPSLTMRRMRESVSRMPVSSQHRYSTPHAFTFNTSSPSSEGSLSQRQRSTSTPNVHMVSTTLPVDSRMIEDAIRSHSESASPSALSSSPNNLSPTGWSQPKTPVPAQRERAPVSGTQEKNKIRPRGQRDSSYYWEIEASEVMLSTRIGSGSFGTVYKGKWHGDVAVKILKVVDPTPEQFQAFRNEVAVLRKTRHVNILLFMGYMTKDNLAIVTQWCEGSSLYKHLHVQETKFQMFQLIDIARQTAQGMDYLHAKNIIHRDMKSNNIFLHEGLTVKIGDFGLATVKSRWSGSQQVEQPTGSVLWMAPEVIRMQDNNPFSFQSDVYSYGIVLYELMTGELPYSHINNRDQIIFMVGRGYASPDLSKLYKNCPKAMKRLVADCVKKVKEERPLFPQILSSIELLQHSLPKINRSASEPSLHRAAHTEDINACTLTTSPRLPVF

RAF kinases [3] = target: RAF kinases (Homo sapiens, UniProt P15056); experiment: biochemical
RAF kinases (Homo sapiens, UniProt P15056), sequence (P15056 whole entry): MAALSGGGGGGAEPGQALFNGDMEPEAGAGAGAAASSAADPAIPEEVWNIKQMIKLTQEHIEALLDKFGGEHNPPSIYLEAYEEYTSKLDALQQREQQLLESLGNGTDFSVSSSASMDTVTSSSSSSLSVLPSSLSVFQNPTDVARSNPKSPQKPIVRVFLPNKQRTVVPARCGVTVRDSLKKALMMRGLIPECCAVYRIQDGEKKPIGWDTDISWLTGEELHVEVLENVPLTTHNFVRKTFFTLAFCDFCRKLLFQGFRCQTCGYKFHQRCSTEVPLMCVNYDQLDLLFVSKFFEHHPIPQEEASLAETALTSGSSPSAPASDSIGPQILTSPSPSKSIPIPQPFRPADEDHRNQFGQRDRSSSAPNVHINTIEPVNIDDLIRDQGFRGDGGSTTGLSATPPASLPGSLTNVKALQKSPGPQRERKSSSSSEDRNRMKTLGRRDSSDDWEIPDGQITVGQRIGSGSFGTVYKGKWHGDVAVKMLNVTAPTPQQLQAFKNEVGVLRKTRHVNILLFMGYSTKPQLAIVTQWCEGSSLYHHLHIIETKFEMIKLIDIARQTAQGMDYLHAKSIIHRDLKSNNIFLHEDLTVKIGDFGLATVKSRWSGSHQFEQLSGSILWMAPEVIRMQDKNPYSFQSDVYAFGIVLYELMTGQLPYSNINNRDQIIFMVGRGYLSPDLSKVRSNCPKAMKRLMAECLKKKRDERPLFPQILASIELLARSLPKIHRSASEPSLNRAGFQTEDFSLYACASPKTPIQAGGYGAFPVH

RAF kinases [4] = target: T1, RAF kinases (Homo sapiens, UniProt P15056, V600E); experiment: biochemical
T1 sequence (P15056 whole entry V600E): as the sequence (P15056 whole entry) above, with V600E counted along it

RAF kinases [5] = target: T1, RAF kinases; settings: read-out: BRAF V600E Kd; BRAF V600E

Row | SMILES | IC50 [1] [µM] | EC50 (A375 cells) [µM] | Kd (RAF kinases [2]) [µM] | Kd (RAF kinases [3]) [µM] | Kd (RAF kinases [4]) [µM] | Kd (RAF kinases [5]) [µM]
1 | COc1cc2ncnc(Oc3cccc(NC(=O)Nc4cc(C(C)(C)C)on4)c3)c2cc1OC[C@H](O)CN1CCN(C)CC1 [Ex 112, (R)-1-(5-tert-butylisoxazol-3-yl)-3-(3-(6-(2-hydroxy-3-(4-methylpiperazin-1-yl)propoxy)-7-methoxyquinazolin-4-yloxy)phenyl)urea] | 0.25 to 0.5 | 0.5 to 1 | 0.25 to 0.5 | 0.5 to 1 |  | 
2 | COCCOc1cc2ncnc(Oc3cccc(NC(=O)Nc4cccc(C(C)(C)C)c4)c3)c2cc1OC [Ex 119, 1-(3-tert-butylphenyl)-3-(3-(6-methoxy-7-(2-methoxyethoxy)quinazolin-4-yloxy)phenyl)urea] | 0.25 to 0.5 | > 1 | 0.25 to 0.5 | 0.25 to 0.5 |  | 
3 | COc1cc2ncnc(Oc3cccc(NC(=O)Nc4cc(C(F)(F)F)ncn4)c3)c2cc1OC [Ex 146, 1-(3-(6,7-dimethoxyquinazolin-4-yloxy)phenyl)-3-(6-(trifluoromethyl)pyrimidin-4-yl)urea] | > 1 | > 1 | 0.25 to 0.5 | 0.25 to 0.5 |  | 
4 | COc1cc2ncnc(Oc3cccc(NC(=O)Nc4cc(C(C)(F)F)no4)c3)c2cc1OC [Ex 152, 1-(3-(1,1-difluoroethyl)isoxazol-5-yl)-3-(3-(6,7-dimethoxyquinazolin-4-yloxy)phenyl)urea] | 0.5 to 1 | 0.5 to 1 | 0.25 to 0.5 | 0.25 to 0.5 |  | 
5 | COc1cc2ncnc(Oc3cccc(NC(=O)Nc4cc(C(C)(C)C)nn4-c4ccccc4)c3)c2cc1OC [Ex 153, 1-(3-tert-butyl-1-phenyl-1H-pyrazol-5-yl)-3-(3-(6,7-dimethoxyquinazolin-4-yloxy)phenyl)urea] | < 0.25 |  |  |  | 0.5 to 1 | 
6 | COc1cc2ncnc(Sc3cccc(NC(=O)Nc4cc(C(C)(C)C)nn4C)c3)c2cc1OC [Ex 157, 1-(3-tert-butyl-1-methyl-1H-pyrazol-5-yl)-3-(3-(6,7-dimethoxyquinazolin-4-ylthio)phenyl)urea] | < 0.25 | > 1 | 0.25 to 0.5 | 0.5 to 1 |  | 
7 | COc1cc2ncnc(Sc3cccc(NC(=O)Nc4cc(C(C)(CF)CF)no4)c3)c2cc1OC [Ex 160, 1-[3-(1,3-difluoro-2-methylpropan-2-yl)isoxazol-5-yl]-3-[3-(6,7-dimethoxyquinazolin-4-ylthio)phenyl]urea] | < 0.25 | > 1 | 0.25 to 0.5 | 0.5 to 1 |  | 
8 | COc1cc2ncnc(Oc3cccc(NC(=O)Nc4ccc(C(C)(C)C)cc4)c3)c2cc1OC [Ex 173, 1-(4-tert-butylphenyl)-3-(3-(6,7-dimethoxyquinazolin-4-yloxy)phenyl)urea] | 0.25 to 0.5 | > 1 | 0.25 to 0.5 | 0.5 to 1 |  | 
9 | COc1cc2ncnc(Oc3cccc(NC(=O)Nc4ccc(Cl)c(C(F)(F)F)c4)c3)c2cc1OC [Ex 176, 1-(4-chloro-3-(trifluoromethyl)phenyl)-3-(3-(6,7-dimethoxyquinazolin-4-yloxy)phenyl)urea] | 0.25 to 0.5 | > 1 | 0.25 to 0.5 | 0.5 to 1 |  | 
10 | COc1cccc(NC(=O)Nc2cccc(Oc3ncnc4cc(OC)c(OC)cc34)c2)c1 [Ex 178, 1-(3-(6,7-dimethoxyquinazolin-4-yloxy)phenyl)-3-(3-methoxyphenyl)urea] | > 1 | > 1 | 0.25 to 0.5 | 0.5 to 1 |  | 
11 | CCOc1cccc(NC(=O)Nc2cccc(Oc3ncnc4cc(OC)c(OC)cc34)c2)c1 [Ex 179, 1-(3-(6,7-dimethoxyquinazolin-4-yloxy)phenyl)-3-(3-ethoxyphenyl)urea] | > 1 | > 1 | 0.25 to 0.5 | 0.5 to 1 |  | 
12 | COCCOc1cc2ncnc(Oc3cccc(NC(=O)Nc4cc(C(C)(C)C)no4)c3)c2cc1OC [Ex 202, 1-(3-tert-butylisoxazol-5-yl)-3-(3-(6-methoxy-7-(2-methoxyethoxy)quinazolin-4-yloxy)phenyl)urea] | < 0.25 | > 1 | 0.25 to 0.5 | 0.25 to 0.5 |  | 
13 | COCCOc1cc2ncnc(Oc3cccc(NC(=O)Nc4cc(C5CCCC5)no4)c3)c2cc1OC [Ex 207, 1-(3-cyclopentylisoxazol-5-yl)-3-(3-(6-methoxy-7-(2-methoxyethoxy)quinazolin-4-yloxy)phenyl)urea] | > 1 | > 1 | 0.25 to 0.5 | 0.5 to 1 |  | < 0.25
14 | COCCOc1cc2ncnc(Oc3cccc(NC(=O)Nc4cc(C(C)C)no4)c3)c2cc1OC [Ex 215, 1-(3-isopropylisoxazol-5-yl)-3-(3-(6-methoxy-7-(2-methoxyethoxy)quinazolin-4-yloxy)phenyl)urea] | 0.5 to 1 | > 1 | 0.25 to 0.5 | 0.25 to 0.5 |  | < 0.25
15 | COCCOc1cc2ncnc(Sc3cccc(NC(=O)Nc4cc(C(C)(CF)CF)on4)c3)c2cc1OC [Ex 230, 1-[5-(1,3-difluoro-2-methylpropan-2-yl)isoxazol-3-yl]-3-{3-[6-methoxy-7-(2-methoxyethoxy)quinazolin-4-ylthio]phenyl}urea] | < 0.25 | 0.25 to 0.5 | 0.25 to 0.5 | 0.5 to 1 |  | < 0.25
16 | COCCOc1cc2ncnc(Sc3cccc(NC(=O)Nc4cc(C(C)(C)F)no4)c3)c2cc1OC [Ex 234, 1-(3-(2-fluoropropan-2-yl)isoxazol-5-yl)-3-(3-(6-methoxy-7-(2-methoxyethoxy)quinazolin-4-ylthio)phenyl)urea] | < 0.25 | > 1 | 0.25 to 0.5 | 0.25 to 0.5 |  | < 0.25
17 | COc1cc2ncnc(Sc3cccc(NC(=O)Nc4ccc(OC)c(C(F)(F)F)c4)c3)c2cc1OCCCN1CCS(=O)(=O)CC1 [Ex 246, 1-(4-methoxy-3-(trifluoromethyl)phenyl)-3-(3-(7-methoxy-6-(3-(4,4-dioxothiomorpholino)propoxy)quinazolin-4-ylthio)phenyl)urea] | < 0.25 | 0.5 to 1 | 0.25 to 0.5 | 0.25 to 0.5 |  | < 0.25
18 | COCCOc1cc2ncnc(Sc3cccc(NC(=O)Nc4cc(C(C)(C)C)no4)c3)c2cc1OCCOC [Ex 247, 1-(3-(6,7-bis(2-methoxyethoxy)quinazolin-4-ylthio)phenyl)-3-(3-tert-butylisoxazol-5-yl)urea] | < 0.25 | > 1 | 0.25 to 0.5 | 0.25 to 0.5 |  | < 0.25
19 | COc1cc2ncnc(Oc3cccc(NC(=O)Nc4cnn(C(C)(C)C)c4)c3)c2cc1OC [Ex 252, 1-(1-tert-butyl-1H-pyrazol-4-yl)-3-(3-(6,7-dimethoxyquinazolin-4-yloxy)phenyl)urea] | > 1 | > 1 | 0.25 to 0.5 | 0.25 to 0.5 |  | < 0.25
20 | COc1cc2ncnc(Oc3cccc(NC(=O)Nc4cc(C(F)(F)F)nn4-c4ccccc4)c3C)c2cc1OC [Ex 291, 1-(3-(6,7-Dimethoxyquinazolin-4-yloxy)-2-methylphenyl)-3-(1-phenyl-3-(trifluoromethyl)-1H-pyrazol-5-yl)urea] | 0.5 to 1 | > 1 | 0.25 to 0.5 | 0.5 to 1 |  | < 0.25
21 | COc1cc2ncnc(Oc3cccc(NC(=O)Nc4cc(C(C)(C)C)nn4-c4cnccc4C)c3)c2cc1OC [Ex 303, 1-(3-tert-butyl-1-(4-methylpyridin-3-yl)-1H-pyrazol-5-yl)-3-(3-(6,7-dimethoxyquinazolin-4-yloxy)phenyl)urea] | < 0.25 | < 0.25 | 0.25 to 0.5 | 0.5 to 1 |  | < 0.25
22 | COc1ccc(-n2nc(C(C)(C)C)cc2NC(=O)Nc2cccc(Oc3ncnc4cc(OC)c(OC)cc34)c2)cc1 [Ex 361, 1-(3-tert-butyl-1-(4-methoxyphenyl)-1H-pyrazol-5-yl)-3-(3-(6,7-dimethoxyquinazolin-4-yloxy)phenyl)urea] | < 0.25 | > 1 | 0.5 to 1 | 0.25 to 0.5 |  | < 0.25
23 | COc1cc2ncnc(Oc3cccc(NC(=O)Nc4cc(C(C)(C)C)nn4-c4ccccc4F)c3)c2cc1OC [Ex 372, 1-(3-tert-butyl-1-(2-fluorophenyl)-1H-pyrazol-5-yl)-3-(3-(6,7-dimethoxyquinazolin-4-yloxy)phenyl)urea] | < 0.25 |  | 0.5 to 1 | 0.5 to 1 |  | < 0.25
24 | CCOc1cc2ncnc(Oc3cccc(NC(=O)Nc4cc(C(C)(C)C)nn4-c4ccccc4)c3)c2cc1OC [Ex 387, 1-(3-tert-butyl-1-phenyl-1H-pyrazol-5-yl)-3-(3-(7-ethoxy-6-methoxyquinazolin-4-yloxy)phenyl)urea] | < 0.25 |  | 0.5 to 1 | 0.5 to 1 |  | < 0.25
25 | CCOc1cc2c(Oc3cccc(NC(=O)Nc4cc(C(C)(C)C)nn4-c4ccccc4)c3)ncnc2cc1OC [Ex 390, 1-(3-tert-butyl-1-phenyl-1H-pyrazol-5-yl)-3-(3-(6-ethoxy-7-methoxyquinazolin-4-yloxy)phenyl)urea] | < 0.25 |  | 0.5 to 1 | 0.25 to 0.5 |  | < 0.25
26 | COc1cc2c(Oc3cccc(NC(=O)Nc4cc(C(F)(F)F)nn4-c4ccccc4)c3)ncnc2cc1OCCN1CCOCC1 [Ex 396, 1-(3-(6-Methoxy-7-(2-morpholinoethoxy)quinazolin-4-yloxy)phenyl)-3-(1-phenyl-3-(trifluoromethyl)-1H-pyrazol-5-yl)urea] | 0.5 to 1 | 0.5 to 1 | 0.5 to 1 | 0.5 to 1 |  | < 0.25
27 | CCOc1cc2ncnc(Oc3cccc(NC(=O)Nc4cc(C(F)(F)F)nn4-c4ccccc4)c3)c2cc1OC [Example 384, 1-(3-(7-ethoxy-6-methoxyquinazolin-4-yloxy)phenyl)-3-(1-phenyl-3-(trifluoromethyl)-1H-pyrazol-5-yl)urea] | 0.5 to 1 | 0.25 to 0.5 | 0.25 to 0.5 | 0.5 to 1 |  | < 0.25
